Experimental data from US20100119479A1, “THERAPEUTIC ANTIVIRAL PEPTIDES” (INTERMUNE, INC., priority 2008, published 2010).
pEC50, pIC50: −log10 of the molar value.

What was measured:
[1] = molecular target: T1, full-length NS3/NS4A-2 (HCV NS3 protease) (Hepatitis C virus genotype 1b, UniProt Q9WMX2); assay: NS3 Inhibition Assay (NS3-NS4 protease assay, RETS1 substrate); type: biochemical; conditions: NS3/NS4A-2 protease
T1 construct: Recombinant E. coli or Baculovirus full-length NS3; host or cells: E. coli or baculovirus (BV) expression
Method in brief: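 Full-length NS3 (E. coli 2 nM or baculovirus 3 nM) precomplexed with excess NS4A-2, preincubated 10 min at room temperature with compound (top 50 μM). Then 2 μM RETS1 FRET substrate added, fluorescence (ex 335/em 495 nm) read kinetically for 30 min. IC50 by 4-parameter fit, converted to Ki using Km 2.03 μM (E. coli) or 1.74 μM (BV).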

[2] = test system: HCV sub-genomic replicon, GS4.3 (HuH-7 hepatoma cells); assay: Quantitation by ELISA of NPTII in the HCV sub-genomic replicon, GS4.3; type: cell-based; conditions: Hepatitis C virus, GS4.3 replicon cells, 72 h incubation
Method in brief: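 HuH-7 cells carrying the 1377/NS3-3′ subgenomic replicon were seeded 24 h ahead, then treated in G418-free medium with 3-fold dilutions from 10 μM (1% DMSO, duplicates) for 72 h at 37 °C, 5% CO2. NPTII in lysates was measured by ELISA (TMB, 450 nm). EC50 came from a 4-parameter fit of percent DMSO-control signal.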

T1 sequence (Q9WMX2 1027-1657): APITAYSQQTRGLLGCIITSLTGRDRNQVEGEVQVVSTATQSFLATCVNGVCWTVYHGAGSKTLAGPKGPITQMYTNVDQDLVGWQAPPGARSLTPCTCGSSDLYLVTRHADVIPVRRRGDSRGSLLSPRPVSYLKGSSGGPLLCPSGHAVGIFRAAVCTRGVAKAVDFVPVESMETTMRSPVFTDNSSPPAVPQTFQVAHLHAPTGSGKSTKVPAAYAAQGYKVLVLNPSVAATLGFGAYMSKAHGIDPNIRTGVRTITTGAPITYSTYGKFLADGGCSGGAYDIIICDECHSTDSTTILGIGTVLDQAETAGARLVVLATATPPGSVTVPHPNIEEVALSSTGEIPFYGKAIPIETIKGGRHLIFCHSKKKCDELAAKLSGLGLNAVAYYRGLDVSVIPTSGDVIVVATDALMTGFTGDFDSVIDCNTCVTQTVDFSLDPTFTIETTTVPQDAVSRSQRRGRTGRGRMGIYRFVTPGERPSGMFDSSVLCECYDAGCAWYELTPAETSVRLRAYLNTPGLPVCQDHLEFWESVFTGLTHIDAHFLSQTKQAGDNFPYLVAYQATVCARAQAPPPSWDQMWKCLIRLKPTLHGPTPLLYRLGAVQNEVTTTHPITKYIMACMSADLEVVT
T1 sequence (Q9WMX2 1658-1711): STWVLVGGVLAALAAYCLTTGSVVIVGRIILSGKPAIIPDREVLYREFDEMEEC

SMILES | pIC50 [1] | pEC50 [2]
CC[C@@H]1C[C@]1(NC(=O)[C@@H]1C[C@@H](Oc2cc(-c3nc(C(C)C)cs3)nc3c(C)c(OC)ccc23)CN1C(=O)[C@@H](Nc1ccc(F)c(C(F)(F)F)c1)C(C)(C)C)C(=O)NS(=O)(=O)C1CC1 [Compound 308] | > 7.00 | > 7.00
CC[C@@H]1C[C@]1(NC(=O)[C@@H]1C[C@@H](Oc2cc(-c3nc(C(C)C)cs3)nc3c(C)c(OC)ccc23)CN1C(=O)[C@@H](Nc1ccc(F)c(C(F)(F)F)c1)C(C)(C)C)C(=O)NS(=O)(=O)N(C)C [Compound 309] | > 7.00 | > 7.00
CC(C)(C)[C@H](Nc1ccc(F)c(C(F)(F)F)c1)C(=O)N1C[C@H](OC(=O)N2Cc3cccc(Cl)c3C2)C[C@H]1C(=O)N[C@]1(C(=O)NS(=O)(=O)C2(C)CC2)C[C@H]1C1CC1 [Compound 310] | > 7.00 | > 7.00
CC[C@@H]1C[C@]1(NC(=O)[C@@H]1C[C@@H](OC(=O)N2Cc3ccc(NCCN4CCOCC4)cc3C2)CN1C(=O)[C@@H](Nc1cc(F)cc(C(F)(F)F)c1)C(C)(C)C)C(=O)NS(=O)(=O)C1(C)CC1 [Compound 314] | > 7.00 | > 7.00
C=C[C@@H]1C[C@]1(NC(=O)[C@@H]1C[C@@H](Oc2cc(-c3nc(C(C)C)cs3)nc3c(C)c(OC)ccc23)CN1C(=O)[C@@H](Nc1cc(F)cc(C(F)(F)F)c1)C(C)(C)C)C(=O)NS(=O)(=O)C1(C)CC1 [Compound 334] | > 7.00 | > 7.00
CC[C@@H]1C[C@]1(NC(=O)[C@@H]1CC(Oc2cc(-c3nc(C(C)C)cs3)nc3c(C)c(OC)ccc23)CN1C(=O)[C@@H](Nc1cccc(C(F)(F)F)c1)C(C)(C)C)C(=O)NS(=O)(=O)C1CC1 (some centres unmarked) [Compound 335] | > 7.00 | > 7.00
CC[C@@H]1C[C@]1(NC(=O)[C@@H]1CC(Oc2cc(-c3nc(C(C)C)cs3)nc3c(C)c(OC)ccc23)CN1C(=O)[C@@H](Nc1cccc(C(F)(F)F)c1)C(C)(C)C)C(=O)NS(=O)(=O)C1(C)CC1 (some centres unmarked) [Compound 336] | > 7.00 | > 7.00
CC[C@@H]1C[C@]1(NC(=O)[C@@H]1C[C@@H](Oc2cc(-c3nc(C(C)C)cs3)nc3c(C)c(OC)ccc23)CN1C(=O)[C@@H](Nc1ccccc1[N+](=O)[O-])C(C)(C)C)C(=O)NS(=O)(=O)C1CC1 [Compound 350] | < 6.00 | > 7.00
C=C[C@@H]1C[C@]1(NC(=O)[C@@H]1C[C@@H](Oc2cc(-c3nc(C(C)C)cs3)nc3c(C)c(OC)ccc23)CN1C(=O)[C@@H](Nc1ccccc1[N+](=O)[O-])C(C)(C)C)C(=O)NS(=O)(=O)C1CC1 [Compound 351] | 6.00 to 7.00 | > 7.00
CC[C@@H]1C[C@]1(NC(=O)[C@@H]1C[C@@H](Oc2cc(-c3nc(C(C)C)cs3)nc3c(C)c(OC)ccc23)CN1C(=O)[C@@H](Nc1ccccc1)C(C)(C)C)C(=O)NS(=O)(=O)C1CC1 [Compound 352] | > 7.00 | > 7.00
C=C[C@@H]1C[C@]1(NC(=O)[C@@H]1C[C@@H](Oc2cc(-c3nc(C(C)C)cs3)nc3c(C)c(OC)ccc23)CN1C(=O)[C@@H](Nc1ccccc1)C(C)(C)C)C(=O)NS(=O)(=O)C1CC1 [Compound 353] | > 7.00 | > 7.00
CC[C@@H]1C[C@]1(NC(=O)[C@@H]1C[C@@H](Oc2cc(-c3nc(C(C)C)cs3)nc3c(C)c(OC)ccc23)CN1C(=O)[C@@H](Nc1cc(F)cc(C(F)(F)F)c1)C(C)(C)C)C(=O)NS(=O)(=O)C1CC1 [Compound 354] | > 7.00 | > 7.00
C=C[C@@H]1C[C@]1(NC(=O)[C@@H]1C[C@@H](Oc2cc(-c3nc(C(C)C)cs3)nc3c(C)c(OC)ccc23)CN1C(=O)[C@@H](Nc1ccc(F)c(C(F)(F)F)c1)C(C)(C)C)C(=O)NS(=O)(=O)N(C)C [Compound 400] | > 7.00 | > 7.00
C=C[C@@H]1C[C@]1(NC(=O)[C@@H]1C[C@@H](Oc2cc(-c3nc(C(C)C)cs3)nc3c(C)c(OC)ccc23)CN1C(=O)[C@@H](Nc1cc(C)cc(C(F)(F)F)c1)C(C)(C)C)C(=O)NS(=O)(=O)C1(C)CC1 [Compound 402] | > 7.00 | > 7.00
C=C[C@@H]1C[C@]1(NC(=O)[C@@H]1C[C@@H](Oc2cc(-c3nc(C(C)C)cs3)nc3c(C)c(OC)ccc23)CN1C(=O)[C@@H](Nc1cc(Cl)cc(C(F)(F)F)c1)C(C)(C)C)C(=O)NS(=O)(=O)C1(C)CC1 [Compound 403] | > 7.00 | > 7.00
C=C[C@@H]1C[C@]1(NC(=O)[C@@H]1C[C@@H](Oc2cc(-c3nc(C(C)C)cs3)nc3c(C)c(OC)ccc23)CN1C(=O)[C@@H](Nc1cc(F)cc(OC(F)(F)F)c1)C(C)(C)C)C(=O)NS(=O)(=O)C1(C)CC1 [Compound 404] | > 7.00 | > 7.00
